Measured values reported in patent publication US9828350B2, “5,6-dihydro-2H-[1,4]oxazin-3-yl-amine derivatives useful as inhibitors of beta-secretase (BACE)” (Janssen Pharmaceutica NV, priority 2010, dated 2017).

Tests used:
[1] = target: recombinant BACE1 protein (Homo sapiens, UniProt P56817); assay: Biochemical FRET based assay; details: recombinant BACE1 1 μg/ml, 120 minutes at room temperature, pH 5.0; for IC50: read-out: Biochemical FRET based assay pIC50 (converted)
Source text: Biochemical FRET Based Assay
This assay is a Fluorescence Resonance Energy Transfer Assay (FRET) based assay. The substrate for this assay is an APP derived 13 amino acids peptide that contains the ‘Swedish’ Lys-Met/Asn-Leu mutation of the amyloid precursor protein (APP) beta-secretase cleavage site. This substrate also contains two fluorophores: (7-methoxycoumarin-4-yl) acetic acid (Mca) is a fluorescent donor with excitation wavelength at 320 nm and emission at 405 nm and 2,4-Dinitrophenyl (Dnp) is a proprietary quencher acceptor. […] Upon cleavage by BACE1, the fluorophore Mca is separated from the quenching group Dnp, restoring the full fluorescence yield of the donor. The increase in fluorescence is linearly related to the rate of proteolysis.
Briefly in a 384-well format recombinant BACE1 protein in a final concentration of 1 μg/ml is incubated for 120 minutes at room temperature with […] substrate in incubation buffer (40 mM Citrate buffer pH 5.0, 0.04% PEG, 4% DMSO) in the absence or presence of compound. Next the amount of proteolysis is directly measured by fluorescence measurement at T=0 and T=120 (excitation at 320 nm and emission at 405 nm). Results are expressed in RFU (Relative Fluorescence Units), as difference between T120 and TO.

Abeta total = assay: Cellular αLisa assay in SKNBE2 cells, Abeta total; format: cell-based, human; details: incubated for 18 hours; for IC50: Homo sapiens, SKNBE2, 18 h, read-out: Cellular αLisa assay in SKNBE2 cells Abetatotal pIC50 (converted)
Procedure: (§1) Cellular αLisa Assay in SKNBE2 Cells
(§2) In two αLisa assays the levels of Abeta total and Abeta 1-42 produced and secreted into the medium of human neuroblastoma SKNBE2 cells are quantified. The assay is based on the human neuroblastoma SKNBE2 expressing the wild type Amyloid Precursor Protein (hAPP695). The compounds are diluted and added to these cells, incubated for 18 hours and then measurements of Abeta 1-42 and Abeta total are taken. Abeta total and Abeta 1-42 are measured by sandwich αLisa. αLisa is a sandwich assay using biotinylated antibody AbN/25 attached to streptavidin coated beads and antibody Ab4G8 or cAb42/26 conjugated acceptor beads for the detection of Abeta total and Abeta 1-42 respectively. In the presence of Abeta total or Abeta 1-42, the beads come into close proximity. The excitation of the donor beads provokes the release of singlet oxygen molecules that trigger a cascade of energy transfer in the acceptor beads, resulting in light emission. Light emission is measured after 1 hour incubation (excitation at […] and emission at 615 nm).

Abeta 1-42 = assay: Cellular αLisa assay in SKNBE2 cells, Abeta 1-42; format: cell-based, human; details: incubated for 18 hours; for IC50: Homo sapiens, SKNBE2, 18 h, read-out: Cellular αLisa assay in SKNBE2 cells Abeta 42 pIC50 (converted)
Procedure: as §1, §2

recombinant BACE1 protein, sequence (P56817 46-501): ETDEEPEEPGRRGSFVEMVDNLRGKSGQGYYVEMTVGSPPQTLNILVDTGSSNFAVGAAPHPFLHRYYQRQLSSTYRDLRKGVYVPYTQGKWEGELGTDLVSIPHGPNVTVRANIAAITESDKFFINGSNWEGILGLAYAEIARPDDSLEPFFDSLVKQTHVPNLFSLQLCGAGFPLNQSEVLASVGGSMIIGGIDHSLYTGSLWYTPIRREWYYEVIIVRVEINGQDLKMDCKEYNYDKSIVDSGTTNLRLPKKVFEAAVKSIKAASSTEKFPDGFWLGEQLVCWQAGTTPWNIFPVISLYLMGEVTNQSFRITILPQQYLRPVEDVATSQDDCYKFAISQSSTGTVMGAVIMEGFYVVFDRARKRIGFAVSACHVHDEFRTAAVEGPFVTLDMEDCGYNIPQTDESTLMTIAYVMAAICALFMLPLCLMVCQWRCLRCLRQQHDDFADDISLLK

Row | SMILES | IC50 [1] [nM] | IC50 (Abeta total) [nM] | IC50 (Abeta 1-42) [nM] | Cellular αLisa assay in SKNBE2 cells Abetatotal pIC50 (Abeta total) | Cellular αLisa assay in SKNBE2 cells Abeta 42 pIC50 (Abeta 1-42) | Biochemical FRET based assay pIC50 [1]
1 | NC1=N[C@@](c2cc(-c3cncc(Cl)c3)ccc2F)(C2CC2)[C@@H](F)OC1 [Compound 294] | 2290 | 4900 | 6610 |  |  | 
2 | Cc1ccc(C(=O)Nc2cccc(C3(C)N=C(N)COC3(F)C(F)(F)F)c2)nc1 (single isomer, unassigned) [Compound 194] | 2000 |  |  | 6.13 | 6.08 | 
3 | N#Cc1ccc(C(=O)Nc2cccc([C@@]3(C4CC4)N=C(N)CO[C@H]3C(F)(F)F)c2)nc1 [Compound 225, (2R,3R)—N-{3-[5-amino-3-cyclopropyl-2-(trifluoromethyl)-3,6-dihydro-2H-1,4-oxazin-3-yl]phenyl}-5-cyanopyridine-2-carboxamide] | 35.5 | 6.61 | 6.31 |  |  | 
4 | C[C@@]1(c2cc(-c3cncnc3)c(F)cc2F)COC2(CC2)C(N)=N1 [Compound 150] | 1100 | 200 | 200 |  |  | 
5 | CC1(c2cc(-c3cncnc3)ccc2F)COCC(N)=N1 (single isomer, unassigned) [Compound 54] |  |  |  | 6.65 | 6.68 | 5.41
6 | NC1=N[C@@](c2cccc(NC(=O)c3ncc(Cl)cc3F)c2)(C2CC2)[C@@H](F)OC1 [Compound 250, (2R,3R)—N-[3-(5-amino-3-cyclopropyl-2-fluoro-3,6-dihydro-2H-1,4-oxazin-3-yl)phenyl]-5-chloro-3-fluoropyridine-2-carboxamide] | 60.3 | 39.8 | 43.7 |  |  | 
7 | CC1(c2cccc(-c3cncnc3)c2)N=C(N)COC1(F)C(F)(F)F (single isomer, unassigned) [Compound 116] | > 30200 |  |  | 5.06 | 5.18 | 
8 | C[C@]1(c2cc(NC(=O)c3cnc(OCC(F)(F)F)cn3)ccc2F)N=C(N)CO[C@@]1(F)C(F)(F)F [Compound 319] | 43.7 | 69.2 | 74.1 |  |  | 
9 | COc1cncc(-c2cccc(C3(C)N=C(N)COC3F)c2)c1 (single isomer, unassigned) [Compound 88] | > 30200 |  |  | 5.65 | 5.66 | 
10 | COc1ccc(-c2cc(C3(C)COCC(N)=N3)c(F)cc2F)cc1 (centres unmarked) [Compound 33] |  |  |  | 5.75 | 5.72 | 4.91
11 | NC1=N[C@@](c2cccc(NC(=O)c3ncc(Cl)cc3F)c2)(C2CC2)[C@@H](C(F)(F)F)OC1 [Compound 287] | 138 | 27.5 | 32.4 |  |  | 
12 | CC1(c2cccc(-c3cncnc3)c2)N=C(N)COC1(F)C(F)(F)F (single isomer, unassigned) [Compound 139] | > 30200 |  |  | <5 | <5 | 
13 | N#Cc1cnc(C(=O)Nc2cccc([C@@]3(C4CC4)N=C(N)CO[C@@H]3C(F)(F)F)c2)c(Cl)c1 [Compound 290] | 97.7 | 17.8 | 18.6 |  |  | 
14 | CCC1(c2cc(NC(=O)c3cnc(OC)cn3)ccc2F)N=C(N)COC1F (centres unmarked) [Compound 281] | 74.1 |  |  | 7.34 | 7.3 | 
15 | NC1=N[C@@](c2cc(NC(=O)c3cnc(OCC(F)(F)F)cn3)ccc2F)(C2CC2)[C@@H](F)OC1 [Compound 264] | 91.2 | 316 | 347 |  |  | 
16 | N#Cc1cnc(C(=O)Nc2ccc(F)c([C@@]3(C4CC4)N=C(N)CO[C@H]3C(F)(F)F)c2)c(Cl)c1 [Compound 235] | 33.1 | 14.1 | 14.5 |  |  | 
17 | C[C@]1(c2cc(NC(=O)c3ncc(C#N)cc3Cl)ccc2F)N=C(N)CO[C@@]1(F)C(F)(F)F [Compound 307] | 200 | 93.3 | 107 |  |  | 
18 | N#Cc1ccc(C(=O)Nc2cccc(C3(C4CC4)N=C(N)COC3C(F)(F)F)c2)nc1 (centres unmarked) [Compound 226] |  |  |  | 7.47 | 7.41 | 6.86
19 | COc1cccc(-c2cc([C@]3(C)COCC(N)=N3)c(F)cc2F)c1 [Compound 47] |  |  |  | 6.83 | 6.79 | 5.95

Row | SMILES | IC50 [1] [nM] | IC50 (Abeta total) [nM] | IC50 (Abeta 1-42) [nM] | Cellular αLisa assay in SKNBE2 cells Abetatotal pIC50 (Abeta total) | Cellular αLisa assay in SKNBE2 cells Abeta 42 pIC50 (Abeta 1-42) | Biochemical FRET based assay pIC50 [1]
20 | C[C@]1(c2cccc(NC(=O)c3ccc(C#N)cn3)c2)N=C(N)CO[C@@]1(F)C(F)(F)F [Compound 241] | 324 | 120 | 126 |  |  | 
21 | N#Cc1ccc(C(=O)Nc2cccc([C@@]3(C4CC4)N=C(N)CO[C@H]3F)c2)nc1 [Compound 280] | 182 | 57.5 | 58.9 |  |  | 
22 | C[C@]1(c2cc(NC(=O)c3ccncn3)ccc2F)N=C(N)CO[C@H]1C(F)(F)F [Compound 168] | 832 | 74.1 | 79.4 |  |  | 
23 | COc1cnc(C(=O)Nc2cccc([C@@]3(C4CC4)N=C(N)CO[C@]3(F)C(F)(F)F)c2)cn1 [Compound 202] | 479 | 537 | 537 |  |  | 
24 | Cc1cc(Br)cnc1C(=O)Nc1cccc([C@@]2(C3CC3)N=C(N)CO[C@@H]2F)c1 [Compound 313] | 16.6 | 13.5 | 17.8 |  |  | 
25 | CC1(c2cc(-c3cncc(C#N)c3)ccc2F)N=C(N)COC1C(F)(F)F (single isomer, unassigned) [Compound 265] | 525 |  |  | 7.16 | 7.16 | 
26 | C[C@]1(c2cccc(NC(=O)c3ncc(Cl)cc3Cl)c2)N=C(N)CO[C@@]1(F)C(F)(F)F [Compound 243] | 263 | 263 | 240 |  |  | 
27 | NC1=N[C@@](c2cccc(-c3cncnc3)c2)(C2CC2)[C@@H](C(F)(F)F)OC1 [Compound 286] | 851 | 155 | 158 |  |  | 
28 | CC1(c2cc(NC(=O)c3ccc(Cl)cn3)ccc2F)N=C(N)COC1F (single isomer, unassigned) [Compound 137] |  |  |  | <4.82 | <4.82 | 
29 | CC1(c2cc(NC(=O)c3ccc(C#N)cn3)ccc2F)N=C(N)COC1F (single isomer, unassigned) [Compound 125] |  |  |  | 6.42 | 6.44 | 
30 | CC1(c2cc(NC(=O)c3ccc(Cl)cn3)ccc2F)COCC(N)=N1 (single isomer, unassigned) [Compound 61] |  |  |  | 6.98 | 6.94 | 
31 | C[C@@]1(c2cc(NC(=O)c3ccc(Cl)cn3)ccc2F)N=C(N)CO[C@]1(F)C(F)(F)F (single isomer, unassigned) [Compound 109, (2R*,3S*)—N-{3-[5-amino-2-fluoro-3-methyl-2-(trifluoromethyl)-3,6-dihydro-2H-1,4-oxazin-3-yl]-4-fluorophenyl}-5-chloropyridine-2-carboxamide] |  | 832 | 708 |  |  | 
32 | CC1(c2cc(NC(=O)c3ccc(Cl)cn3)ccc2F)COCC(N)=N1 (racemic) [Compound 65] |  |  |  | 8.3 | 8.32 | 
33 | COc1ccc(C(=O)Nc2cccc([C@@]3(C)N=C(N)CO[C@@]3(F)C(F)(F)F)c2)nc1 [Compound 248] |  | 209 | 229 |  |  | 
34 | COc1cnc(C(=O)Nc2ccc(F)c(C3(C)COCC(N)=N3)c2)cn1 (racemic) [Compound 57] |  |  |  | 7.8 | 7.79 | 
35 | CC1(c2cc(NC(=O)c3ccc(Cl)cn3)ccc2F)N=C(N)COC1C(F)(F)F (centres unmarked) [Compound 170] |  |  |  | 8 | 8 | 
36 | CC1(c2cc(NC(=O)c3ccc(Cl)cn3)ccc2F)N=C(N)COC1C(F)(F)F (centres unmarked) [Compound 165] |  |  |  | 8.13 | 8.14 | 
37 | CC1(c2cc(NC(=O)c3ncc(Cl)cc3Cl)ccc2F)COCC(N)=N1 (centres unmarked) [Compound 21] |  |  |  | 8.3 | 8.27 | 
